According to PMC10051477, “5,8-Dimethyl-9H-carbazole Derivatives Blocking hTopo I Activity and Actin Dynamics” (Pharmaceuticals, 2023):

How the values were obtained:
[1] = test system: MDA-MB-231 cells; assay: MTT assay, MDA-MB-231 cell viability; assay type: cell-based; details: Homo sapiens, 72 h, mean ± standard deviation
Procedure: (§1) The inhibition of cancer cell growth exerted by the five considered compounds (1–5) has been evaluated in vitro against two models of breast cancer, namely the estrogen receptor positive (ER+) MCF-7 and the triple negative MDA-MB-231 human breast cancer cells (lacking ER, PR, and HER-2/Neu amplification), together with the normal counterpart, namely the non-malignant breast epithelial cells MCF-10A. […] Moreover, no effects were recorded against the MCF-7 cells, at least until the concentration of 100 μM. […] Thus, the two lead compounds were chosen for subsequent studies aiming at individuating the molecular mechanisms underlying the observed anticancer activity.
(§2) MTT assays (Sigma Aldrich (St.Louis, MO, USA)) were employed to evaluate the in vitro anticancer activities of all the studied compounds, as previously described. The compounds were tested at different concentrations (0.1-1-10-25-50-100 μM) for 72 h. The IC50 values were calculated from the percent (%) of control using GraphPad Prism 9 (GraphPad Software, La Jolla, CA, USA).

[2] = test system: MCF-7 cells; assay: MTT assay, MCF-7 cell viability; assay type: cell-based; details: Homo sapiens, MCF7, 72 h, mean ± standard deviation
Procedure: as §2

[3] = test system: MCF-10A cells; assay: MTT assay, MCF-10A normal cell viability; assay type: cell-based, human; details: 72 h, non-malignant breast epithelial cells, mean ± standard deviation
Procedure: as §1, §2

[4] = molecular target: T1, hTopo II (Homo sapiens, UniProt P11388); assay: hTopo II decatenation assay; assay type: biochemical; details: compound at 10 μM, kDNA, agarose gel
T1 construct: purchased TopoGEN
Procedure: Next, we screened all the compounds for their activity against the hTopo II but, in this case, none of the tested compounds have been able to block the decatenation activity at the concentration of […] (Figure 3b, lanes 4 and 5). […] Indeed, two bands related to the DNA decatenation products are present at the bottom of the agarose gel, which denote the enzyme full activity, both in the control (only vehicle, Figure 3b, lane 3) and the tested compound reactions (Figure 3b, lanes 4–7).
Similarly, hTopo II decatenation assays were carried out, as indicated in the manufacturer’s procedures (TopoGEN, Port Orange, FL, USA) with some revisions.
hTopo II decatenation assays were performed in a final volume of 20 μL: 0.3 μg of kinetoplast DNA (kDNA) was added to a solution containing 1× assay buffer (50 mM Tris-HCl, pH of 8, 150 mM NaCl, 10 mM MgCl2, 0.5 mM Dithiothreitol (DTT), 30 μg/mL bovine serum albumin (BSA), 1 mM ATP) and the tested compounds. The mix was incubated for 15 min at 37 °C. Then, the reaction was started by adding 3 U of hTopo II and incubating at 37 °C for 1 h. Then, 5× stop buffer was added and the samples were treated as described in the previous paragraph. The aqueous phase was loaded on a 1% agarose gel containing 1× TAE buffer with EB (0.5 μg/mL) and visualized using an UV transilluminator.

[5] = molecular target: T2, labeled rabbit muscle actin (Oryctolagus cuniculus, UniProt P68135); assay: In vitro actin polymerization assay; assay type: biochemical; details: 5 µM, 1 h, room temperature; vehicle plateau about 25,000 RFU
T2 construct: fluorescent label (chemical); purchased Abcam; host or cells: rabbit muscle
Text: With the aim to confirm the immunofluorescence results and substantiate whether compounds 3 and 4 could inhibit the actin polymerization mechanism and/or boost the F-actin depolymerization, we employed a fluorescent-labeled purified rabbit actin. LA and cytochalasin B (CB) were used as positive controls for both the polymerization inhibition and F-actin subunits dissociation, or only the polymerization inhibition, respectively. In the negative control reaction (only vehicle), actin monomers undergo a normal polymerization, as visible in Figure 5, panel A. The reaction curve rises in approximately 5 min to a value of about 25,000 RFU (plateau) which remains almost unvaried until the end of the experiment. Contrariwise, the two reference molecules, i.e., LA and CB, used at the concentration of 5 µM, braked the actin polymerization, mostly LA rather than CB, under the adopted experimental conditions, and the LA curve dropped until a value of about 8000 RFU at the reaction end.
An Actin Polymerization/Depolymerization Assay Kit, purchased from Abcam, was employed to assess the ability of compounds 3 and 4 to interfere with the actin polymerization and depolymerization processes. To perform the essays, the manufacturer’s instructions were followed with some modifications. In particular, polymerization assay was carried out incubating in a white 96-well plate the reconstituted actin with supplemented Buffer G, compounds 3 and 4 and then Buffer P was added in order to induce actin polymerization. For the Actin Depolymerization Assay, the actin polymerization was first induced, incubating supplemented Buffers P and G at room temperature for one hour. Then, compounds 3 and 4 were added at a concentration of 5 μM. Latrunculin A (LA) and Cytochalasin B (CB) were utilized as positive control at a concentration of 5 μM. For both the assays, the assemblage of the actin filaments was defined by measuring the fluorescence (Ex/Em: 365/410 nm) in kinetic mode for 1 h at room temperature in a microplate reader.

[6] = test system: MDA-MB-231 cells; assay: TUNEL assay (apoptosis); assay type: cell-based, human; details: MDA-MB-231, 24 h, concentration equal to IC50 values
Procedure: Having individuated two intracellular targets, we wondered whether the lead compounds could induce apoptosis in MDA-MB-231 cells. Thus, we performed a TUNEL assay. […] Indeed, the exposure to both compounds produced a green nuclear fluorescence, already at 24 h, in MDA-MB-231 cells (Figure 6, 3 and 4, panels B, CF^TM488A) as a consequence of the damaged DNA. […] The overlay channel (Figure 6, panels C) is also shown.
TUNEL assay was employed to assess the cells apoptosis, following the manufacturer’s protocols (CF™488A TUNEL Assay Apoptosis Detection Kit, Biotium, Hayward, CA, USA) with few revisions. Briefly, the cells were plated and then additional processed as previously described. DAPI (0.2 μg/mL, Sigma Aldrich, Milan, Italy) was used for nuclei staining. A fluorescence microscope (Leica DM 6000) was used for fluorescence detection (20× magnification). LAS-X software allowed acquiring and processing all the fluorescence images, which are representative of three separate experiments.

T1 sequence (P11388 whole entry): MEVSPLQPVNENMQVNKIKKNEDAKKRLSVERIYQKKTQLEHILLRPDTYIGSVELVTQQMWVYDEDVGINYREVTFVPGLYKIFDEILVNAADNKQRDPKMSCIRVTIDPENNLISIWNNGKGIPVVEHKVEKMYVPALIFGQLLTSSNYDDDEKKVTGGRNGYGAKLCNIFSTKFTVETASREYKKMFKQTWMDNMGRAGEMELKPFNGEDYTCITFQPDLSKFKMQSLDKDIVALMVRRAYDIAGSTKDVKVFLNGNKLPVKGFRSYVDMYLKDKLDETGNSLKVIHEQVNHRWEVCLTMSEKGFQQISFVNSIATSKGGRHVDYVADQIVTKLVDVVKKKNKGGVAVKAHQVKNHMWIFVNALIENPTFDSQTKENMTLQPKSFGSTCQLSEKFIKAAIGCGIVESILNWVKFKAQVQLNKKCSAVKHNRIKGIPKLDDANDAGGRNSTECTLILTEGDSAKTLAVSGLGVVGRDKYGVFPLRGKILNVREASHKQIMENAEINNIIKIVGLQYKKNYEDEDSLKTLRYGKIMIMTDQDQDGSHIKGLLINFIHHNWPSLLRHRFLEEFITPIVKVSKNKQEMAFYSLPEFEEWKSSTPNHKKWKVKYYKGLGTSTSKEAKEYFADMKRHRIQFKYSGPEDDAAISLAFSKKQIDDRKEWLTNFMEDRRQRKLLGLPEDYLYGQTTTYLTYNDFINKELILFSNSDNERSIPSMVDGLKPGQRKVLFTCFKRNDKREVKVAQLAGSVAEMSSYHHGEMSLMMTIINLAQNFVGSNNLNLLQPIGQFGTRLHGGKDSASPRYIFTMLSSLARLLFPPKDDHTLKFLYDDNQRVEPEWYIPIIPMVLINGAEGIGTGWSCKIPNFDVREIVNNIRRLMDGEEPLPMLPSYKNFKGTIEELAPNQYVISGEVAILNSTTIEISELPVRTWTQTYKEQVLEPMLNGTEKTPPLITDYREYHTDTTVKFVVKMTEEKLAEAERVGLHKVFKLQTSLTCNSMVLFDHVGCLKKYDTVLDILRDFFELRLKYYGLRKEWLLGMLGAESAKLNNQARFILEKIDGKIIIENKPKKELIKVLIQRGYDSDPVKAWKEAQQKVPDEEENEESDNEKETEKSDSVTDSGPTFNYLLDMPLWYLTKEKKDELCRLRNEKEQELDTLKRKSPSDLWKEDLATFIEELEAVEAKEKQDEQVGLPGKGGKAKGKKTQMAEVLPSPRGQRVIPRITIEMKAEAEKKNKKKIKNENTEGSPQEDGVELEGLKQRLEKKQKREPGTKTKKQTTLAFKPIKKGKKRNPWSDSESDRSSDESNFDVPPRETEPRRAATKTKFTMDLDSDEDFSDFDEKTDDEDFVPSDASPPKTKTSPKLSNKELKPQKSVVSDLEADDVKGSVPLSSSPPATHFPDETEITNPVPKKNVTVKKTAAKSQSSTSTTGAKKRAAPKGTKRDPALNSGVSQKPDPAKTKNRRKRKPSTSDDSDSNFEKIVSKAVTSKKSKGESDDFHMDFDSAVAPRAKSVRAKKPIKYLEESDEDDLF

IC50 [1] [µM] | IC50 [2] [µM] | Inhibition of hTopo II decatenation activity [4] | Actin polymerization, final fluorescence value of reaction curve [5] | Compound | IC50 ([3]; Homo sapiens, MCF-10A) [µM] | Apoptosis induction (TUNEL, green nuclear fluorescence) [6] | IC50 [3] [µM]
0.73 ± 0.74 | 19.8 ± 1.12 | no inhibitory activity | around 16,000 RFU | Cc1ccc(C)c2c1c1cc(O)ccc1n2C(=O)OC(C)(C)C [Compound 4] | > 100 | able to trigger apoptosis | –
1.44 ± 0.97 | 27.6 ± 0.71 | no inhibitory activity | about 13,000 RFU | Cc1ccc(C)c2c1c1cc(B(O)O)ccc1n2C(=O)OC(C)(C)C [Compound 3] | ~52 | able to trigger apoptosis | 51.9 ± 0.88
